Assay results published in patent US12208110B2 (priority 2020, dated 2025).
Read-outs that look alike come from different tables or passages of the source.

What was measured:
Type in all cases: cell-based
SARS-CoV-2 = test: microbe, parasite or virus in culture; settings: Severe acute respiratory syndrome coronavirus 2, 48 h
[1] = tested on: RSV-Fluc (Recombinant Respiratory Syncytial virus strain A2 containing the firefly luciferase reporter); test: microbe, parasite or virus in culture; settings: human respiratory syncytial virus, NHBE, 72 h, read-out: RSV-Fluc EC50 (nM, NHBE)
[2] = MT4 cytotoxicity analysis (CellTiter-Glo); settings: human
Method: Example 79: MT4 Cytotoxicity Analysis
3-fold serially diluted compound in DMSO, ranging from 2.5 uM to 10 mM, were added by acoustic transfer (Echo) in quadruplicate into black 384-well plates at 200 nl/well. After compound addition, 40 ul MT-4 cells at 80,000/ml were added to each well using a MicroFlo liquid dispenser (BioTek, Winooski, VT) and the cells were cultured for five days at 37° C. Following the incubation, cell viability was determined by adding 35 μL of CellTiter-Glo viability reagent and mixed thoroughly using ViaFlo 384 well workstation. The mixture was incubated for at least 10 minutes at 25° C., and the luminescence signal was quantified on an EnVision plate reader.

[3] = MT-4 cells, five days, CellTiter-Glo, read-out: MT4 CC50

What does the source list for CCCCCCCCCCCCCCCCCCOC[C@H](COP(=O)(O)OC[C@H]1O[C@@](C#N)(c2ccc3c(N)ncnn23)[C@H](O)[C@@H]1O)N(C)C(=O)c1ccc(F)c(Cl)c1 [Example 4, ((2R,3S,4R,5R)-5-(4-aminopyrrolo[2,1-f][1,2,4]triazin-7-yl)-5-cyano-3,4-dihydroxytetrahydrofuran-2-yl)methyl ((R)-2-(3-chloro-4-fluoro-N-methylbenzamido)-3-(octadecyloxy)propyl) hydrogen phosphate]?
EC50 (SARS-CoV-2): 9400 nM; EC50 [1]: 540 nM; CC50 at 5 days ([2]; MT4 CC50 (nM)): 13000 nM

With CCCCCCCCCCCCCCCCCCO[C@@H](C)[C@H](COP(=O)(O)OC[C@H]1O[C@@](C#N)(c2ccc3c(N)ncnn23)[C@H](O)[C@@H]1O)OCc1ccccc1 [Example 5, ((2R,3S,4R,5R)-5-(4-aminopyrrolo[2,1-f][1,2,4]triazin-7-yl)-5-cyano-3,4-dihydroxytetrahydrofuran-2-yl)methyl ((2S,3S)-2-(benzyloxy)-3-(octadecyloxy)butyl) hydrogen phosphate] as the molecule, how does the EC50 (SARS-CoV-2) read?
Its EC50 is 2500 nM.

What about the EC50 [1] of the same molecule?
The EC50 was 50 nM.

And the CC50 at 5 days ([2]; MT4 CC50 (nM))?
Its CC50 at 5 days is 3400 nM.

Which results are given for CCCCCCCCCCCCCCCCCCOC[C@H](COP(=O)(O)OC[C@H]1O[C@@](C#N)(c2ccc3c(N)ncnn23)[C@H](O)[C@@H]1O)SCc1ccccc1 [Example 7, ((2R,3S,4R,5R)-5-(4-aminopyrrolo[2,1-f][1,2,4]triazin-7-yl)-5-cyano-3,4-dihydroxytetrahydrofuran-2-yl)methyl ((R)-2-(benzylthio)-3-(octadecyloxy)propyl) hydrogen phosphate]?
EC50 (SARS-CoV-2): 10000 nM; EC50 [1]: 360 nM; CC50 at 5 days ([2]; MT4 CC50 (nM)): 39000 nM

For CCCCCCCCCCCCCCCCCCO[C@H](C)[C@H](COP(=O)(O)OC[C@H]1O[C@@](C#N)(c2ccc3c(N)ncnn23)[C@H](O)[C@@H]1O)OCc1ccccc1 [Example 8, ((2R,3S,4R,5R)-5-(4-aminopyrrolo[2,1-f][1,2,4]triazin-7-yl)-5-cyano-3,4-dihydroxytetrahydrofuran-2-yl)methyl ((2S,3R)-2-(benzyloxy)-3-(octadecyloxy)butyl) hydrogen phosphate], which EC50 (SARS-CoV-2) is on record?
The EC50 was 2900 nM.

What about the EC50 [1] of the same molecule?
The EC50 was 160 nM.

What about the CC50 at 5 days ([2]; MT4 CC50 (nM)) of the same molecule?
Its CC50 at 5 days is 1800 nM.

For CCCCCCCCCCCCCCCCCCOC[C@H](COP(=O)(O)OC[C@H]1O[C@@](C#N)(c2ccc3c(N)ncnn23)[C@H](O)[C@@H]1O)N1Cc2cc(Cl)c(Cl)cc2C1 [Example 9, ((2R,3S,4R,5R)-5-(4-aminopyrrolo[2,1-f][1,2,4]triazin-7-yl)-5-cyano-3,4-dihydroxytetrahydrofuran-2-yl)methyl ((R)-2-(5,6-dichloroisoindolin-2-yl)-3-(octadecyloxy)propyl) hydrogen phosphate], which EC50 (SARS-CoV-2) is on record?
The EC50 was 9000 nM.

What about the EC50 [1] of the same molecule?
The EC50 was 490 nM.

What about the CC50 at 5 days ([2]; MT4 CC50 (nM)) of the same molecule?
Its CC50 at 5 days is 20000 nM.

Which EC50 (SARS-CoV-2) does the source give for CCCCCCCCCCCCCCCCCCOC[C@H](COP(=O)(O)OC[C@H]1O[C@@](C#N)(c2ccc3c(N)ncnn23)[C@H](O)[C@@H]1O)NC(=O)c1ccccc1C(=O)O [Example 14, 2-(((2R)-1-(((((2R,3S,4R,5R)-5-(4-aminopyrrolo[2,1-f][1,2,4]triazin-7-yl)-5-cyano-3,4-dihydroxytetrahydrofuran-2-yl)methoxy)(hydroxy)phosphoryl)oxy)-3-(octadecyloxy)propan-2-yl)carbamoyl)benzoic acid] here?
Its EC50 is 700 nM.

And the EC50 [1]?
The EC50 was 53 nM.

What about the CC50 at 5 days ([2]; MT4 CC50 (nM)) of the same molecule?
The CC50 at 5 days was 26000 nM.

Which EC50 (SARS-CoV-2) does the source give for CCCCCCCCCCCCCCCCCCOC[C@H](COP(=O)(O)OC[C@H]1O[C@@](C#N)(c2ccc3c(N)ncnn23)[C@H](O)[C@@H]1O)N1C(=O)c2ccccc2C1=O [Example 15, ((2R,3S,4R,5R)-5-(4-aminopyrrolo[2,1-f][1,2,4]triazin-7-yl)-5-cyano-3,4-dihydroxytetrahydrofuran-2-yl)methyl ((R)-2-(1,3-dioxoisoindolin-2-yl)-3-(octadecyloxy)propyl) hydrogen phosphate] here?
The EC50 was 2500 nM.

What about the EC50 [1] of the same molecule?
The EC50 was 140 nM.

What about the CC50 at 5 days ([2]; MT4 CC50 (nM)) of the same molecule?
The CC50 at 5 days was 35000 nM.

With CCCCCCCCCCCCCCCCCCOC[C@H](COP(=O)(O)OC[C@H]1O[C@@](C#N)(c2ccc3c(N)ncnn23)[C@H](O)[C@@H]1O)Nc1cccc(C#N)c1 [Example 16, ((2R,3S,4R,5R)-5-(4-aminopyrrolo[2,1-f][1,2,4]triazin-7-yl)-5-cyano-3,4-dihydroxytetrahydrofuran-2-yl)methyl ((R)-2-((3-cyanophenyl)amino)-3-(octadecyloxy)propyl) hydrogen phosphate] as the molecule, how does the EC50 (SARS-CoV-2) read?
Its EC50 is 1100 nM.

And the EC50 [1]?
Its EC50 is 100 nM.

And the CC50 at 5 days ([2]; MT4 CC50 (nM))?
The CC50 at 5 days was 1900 nM.

Which EC50 (SARS-CoV-2) does the source give for CCCCCCCCCCCCCCCCCCOC[C@H](COc1ccccc1)OP(=O)(O)OC[C@H]1O[C@@](C#N)(c2ccc3c(N)ncnn23)[C@H](O)[C@@H]1O [Example 18, ((2R,3S,4R,5R)-5-(4-aminopyrrolo[2,1-f][1,2,4]triazin-7-yl)-5-cyano-3,4-dihydroxytetrahydrofuran-2-yl)methyl ((R)-1-(octadecyloxy)-3-phenoxypropan-2-yl) hydrogen phosphate] here?
The EC50 was 1800 nM.

And the EC50 [1]?
The EC50 was 69 nM.

And the CC50 at 5 days [2, 3]?
Its CC50 at 5 days is 670 nM.

With CCCCCCCCCCCCCCCCCCOCCOP(=O)(O)OC[C@H]1O[C@@](C#N)(c2ccc3c(N)ncnn23)[C@H](O)[C@@H]1O [Example 21, ((2R,3S,4R,5R)-5-(4-Aminopyrrolo[2,1-f][1,2,4]triazin-7-yl)-5-cyano-3,4-dihydroxytetrahydrofuran-2-yl)methyl (2-(octadecyloxy)ethyl) hydrogen phosphate] as the molecule, how does the EC50 (SARS-CoV-2) read?
The EC50 was 9100 nM.

And the EC50 [1]?
The EC50 was 250 nM.

What about the CC50 at 5 days [2, 3] of the same molecule?
Its CC50 at 5 days is 2300 nM.

What does the source list for CCCCCCCCCCCCCCCCCCO[C@H](COCc1ccccc1)COP(=O)(O)OC[C@H]1O[C@@](C#N)(c2ccc3c(N)ncnn23)[C@H](O)[C@@H]1O [Example 22, ((2R,3S,4R,5R)-5-(4-aminopyrrolo[2,1-f][1,2,4]triazin-7-yl)-5-cyano-3,4-dihydroxytetrahydrofuran-2-yl)methyl ((R)-3-(benzyloxy)-2-(octadecyloxy)propyl) hydrogen phosphate]?
EC50 (SARS-CoV-2): 3900 nM; EC50 [1]: 150 nM; CC50 at 5 days [2, 3]: 9600 nM

What does the source list for CCCCCCCCCCCCCCCCO[C@H](COCc1ccccc1)COP(=O)(O)OC[C@H]1O[C@@](C#N)(c2ccc3c(N)ncnn23)[C@H](O)[C@@H]1O [Example 23, ((2R,3S,4R,5R)-5-(4-aminopyrrolo[2,1-f][1,2,4]triazin-7-yl)-5-cyano-3,4-dihydroxytetrahydrofuran-2-yl)methyl ((R)-3-(benzyloxy)-2-(hexadecyloxy)propyl) hydrogen phosphate]?
EC50 (SARS-CoV-2): 10000 nM; EC50 [1]: 83 nM; CC50 at 5 days [2, 3]: 23000 nM

With CCCCCCCCCCCCCCO[C@H](COCc1ccccc1)COP(=O)(O)OC[C@H]1O[C@@](C#N)(c2ccc3c(N)ncnn23)[C@H](O)[C@@H]1O [Example 24, ((2R,3S,4R,5R)-5-(4-Aminopyrrolo[2,1-f][1,2,4]triazin-7-yl)-5-cyano-3,4-dihydroxytetrahydrofuran-2-yl)methyl ((R)-3-(benzyloxy)-2-(tetradecyloxy)propyl) hydrogen phosphate] as the molecule, how does the EC50 (SARS-CoV-2) read?
The EC50 was 9900 nM.

What about the EC50 [1] of the same molecule?
Its EC50 is 73 nM.

And the CC50 at 5 days [2, 3]?
The CC50 at 5 days was 35000 nM.

Which results are given for CCCCCCCCCCCCCCCCCCOC[C@H](CO[P@@](=O)(S)OC[C@H]1O[C@@](C#N)(c2ccc3c(N)ncnn23)[C@H](O)[C@@H]1O)OCc1ccccc1 [Example 28, O-(((2R,3S,4R,5R)-5-(4-aminopyrrolo[2,1-f][1,2,4]triazin-7-yl)-5-cyano-3,4-dihydroxytetrahydrofuran-2-yl)methyl) O—((R)-2-(benzyloxy)-3-(octadecyloxy)propyl)S-hydrogen (R)-phosphorothioate]?
EC50 (SARS-CoV-2): 3800 nM; EC50 [1]: 190 nM; CC50 at 5 days ([2]; MT4 CC50 (nM)): 24000 nM

With CCCCCCCCCCCCCCCCCCOC[C@H](COP(=O)(O)OC[C@H]1O[C@@](C#N)(c2ccc3c(N)ncnn23)[C@H](O)[C@@H]1O)Oc1c(C#N)cc(C)cc1C#N [Example 29, ((2R,3S,4R,5R)-5-(4-aminopyrrolo[2,1-f][1,2,4]triazin-7-yl)-5-cyano-3,4-dihydroxytetrahydrofuran-2-yl)methyl ((R)-2-(2,6-dicyano-4-methylphenoxy)-3-(octadecyloxy)propyl) hydrogen phosphate] as the molecule, how does the EC50 (SARS-CoV-2) read?
The EC50 was 2700 nM.

What about the EC50 [1] of the same molecule?
Its EC50 is 70 nM.

What about the CC50 at 5 days ([2]; MT4 CC50 (nM)) of the same molecule?
Its CC50 at 5 days is 500 nM.

What does the source list for CCCCCCCCCCCCCCCCCCOC[C@H](COP(=O)(O)OC[C@H]1O[C@@](C#N)(c2ccc3c(N)ncnn23)[C@H](O)[C@@H]1O)Nc1ccccc1C(=O)O [Example 31, 2-(((2R)-1-(((((2R,3S,4R,5R)-5-(4-aminopyrrolo[2,1-f][1,2,4]triazin-7-yl)-5-cyano-3,4-dihydroxytetrahydrofuran-2-yl)methoxy)(hydroxy)phosphoryl)oxy)-3-(octadecyloxy)propan-2-yl)amino)benzoic acid]?
EC50 (SARS-CoV-2): 6300 nM; EC50 [1]: 260 nM; CC50 at 5 days ([2]; MT4 CC50 (nM)): 38000 nM

Which results are given for CCCCCCCCCCCCCCCCCCOC[C@H](COP(=O)(O)OC[C@H]1O[C@@](C#N)(c2ccc3c(N)ncnn23)[C@H](O)[C@@H]1O)OCc1cc(F)cc(S(C)(=O)=O)c1 [Example 32, ((2R,3S,4R,5R)-5-(4-aminopyrrolo[2,1-f][1,2,4]triazin-7-yl)-5-cyano-3,4-dihydroxytetrahydrofuran-2-yl)methyl ((R)-2-((3-fluoro-5-(methylsulfonyl)benzyl)oxy)-3-(octadecyloxy)propyl) hydrogen phosphate]?
EC50 (SARS-CoV-2): 120 nM; EC50 [1]: 40 nM; CC50 at 5 days ([2]; MT4 CC50 (nM)): 340 nM

What does the source list for CCCCCCCCCCCCCCCCCCOC[C@H](COCc1cc(F)cc(C#N)c1)OP(=O)(O)OC[C@H]1O[C@@](C#N)(c2ccc3c(N)ncnn23)[C@H](O)[C@@H]1O [Example 36, ((2R,3S,4R,5R)-5-(4-aminopyrrolo[2,1-f][1,2,4]triazin-7-yl)-5-cyano-3,4-dihydroxytetrahydrofuran-2-yl)methyl ((R)-1-((3-cyano-5-fluorobenzyl)oxy)-3-(octadecyloxy)propan-2-yl) hydrogen phosphate]?
EC50 (SARS-CoV-2): 1200 nM; EC50 [1]: 190 nM; CC50 at 5 days ([2]; MT4 CC50 (nM)): 28000 nM
